Test results as given in ChEMBL document CHEMBL1123169, “Structurally specific binding of halogenated biphenyls to thyroxine transport protein” (J Med Chem, 1986).

Legend:
[1] = biological target: Transthyretin (Homo sapiens) (UniProt P02766); experiment: Concentration at which 50% total binding to prealbumin protein.
[2] = biological target: Transthyretin (Homo sapiens) (UniProt P02766)
Description: Relative binding affinity to prealbumin was determined from the competition binding assays and is expressed relative to L-T4
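Throughout, for Binding affinity: competition binding to prealbumin, with affinity given relative to L-T4 as the reference ligand.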

| Concentration [1] [nM] | SMILES | Binding affinity [2] |
| --- | --- | --- |
| – | Clc1cc(-c2cc(Cl)c(Cl)c(Cl)c2)cc(Cl)c1Cl | 313 |
| – | N[C@@H](Cc1cc(I)c(Oc2ccc(O)c(I)c2)c(I)c1)C(=O)O | 2 |
| – | Oc1ccc(-c2cc(Cl)c(Cl)c(Cl)c2Cl)cc1 | 286 |
| – | NC(Cc1ccc(Oc2cc(I)c(O)c(I)c2)c(I)c1)C(=O)O (configuration not stated) | 23 |
| – | Oc1ccc(-c2c(Cl)cc(Cl)cc2Cl)cc1 | 46 |
| 3 | NC(Cc1cc(I)c(-c2cc(I)c(O)c(I)c2)c(I)c1)C(=O)O (racemic) | 331 |
| – | Oc1c(Cl)cc(-c2ccccc2)cc1Cl | 851 |
| – | c1ccc(-c2ccccc2)cc1 | < 5 |
| – | N[C@@H](Cc1cc(I)c(Oc2cc(I)c(O)c(I)c2)c(I)c1)C(=O)O | 100 |
| 2.5 | Oc1ccc(-c2c(Cl)c(Cl)c(O)c(Cl)c2Cl)cc1 | 398 |
| – | Oc1c(Cl)cc(-c2ccc(Cl)cc2)cc1Cl | 501 |
| – | Clc1cccc(Cl)c1-c1c(Cl)cccc1Cl | < 5 |
| – | Oc1c(Cl)cc(Cl)cc1-c1ccccc1 | 28 |
| – | Clc1cc(Cl)cc(-c2cc(Cl)cc(Cl)c2)c1 | 411 |
| – | Oc1c(-c2cc(Cl)c(Cl)c(Cl)c2)cc(Cl)c(Cl)c1Cl | 208 |
| – | NC(Cc1cc(I)c(Oc2cc(I)c(O)c(I)c2)c(I)c1)C(=O)O (configuration not stated) | 63 |
| 0.87 | O=C(O)c1cc(I)c(-c2cc(I)c(O)c(I)c2)c(I)c1 | 1150 |

| SMILES | Concentration [1] [nM] | Binding affinity [2] |
| --- | --- | --- |
| Oc1c(Cl)cc(-c2cc(Cl)c(O)c(Cl)c2)cc1Cl | 1.5 | 661 |
